Data set [1] can be described thus: Biodistribution in male Balb/C mice. The format is in vivo. As to conditions: for Biodistribution: Blood / Biodistribution: Bone / Biodistribution: Brain / Biodistribution: Fat / Biodistribution: Heart / Biodistribution: Kidney / Biodistribution: Liver / Biodistribution: Lung / Biodistribution: Muscle / Biodistribution: Pancreas / Biodistribution: Spleen: tail vein, mean ± SD, n = 4. The method, then:
For the biodistribution studies, 100˜130 μCi of [^11C] TZ-20-35 in ˜100 μL of 10% ethanol/saline solution (v/v) was injected via the tail vein into mature male Balb/C mice (19-24 g) under anesthesia (2.5% isoflurane in oxygen at a flow rate of 1 mL/min). A group of at least four […] were used for each time point. […] The whole brain was quickly harvested. At the same time, samples of blood, heart, lung, liver, spleen, pancreas, kidney, muscle, fat, and tail were dissected. All the tissue samples were collected in tared tubes and counted in an automated gamma counter (Beckman Gamma 8000 well counter) with standards, prepared by diluting the injectate. The counted tissues were then weighed, and the % ID/g was calculated (Table 4).

A further data set concerns the target T1, α-synuclein fibrils (Homo sapiens, UniProt P37840).
T1 construct: made in house; host or cells: E. coli BL21(DE3)RIL
Kind of data set: ThT competitive assay for α-synuclein fibrils (Table 1). Type of data set: binding. The following applies: for EC50: α-synuclein fibrils. The method, then:
Upon binding to amyloid fibrils, a peak at approximately 440 nm becomes dominant with the fluorescent emission maximum shifted to 480 nm. This is accompanied by a strong enhancement of the fluorescence.
α-Synuclein recombinant protein was produced in E. coli. […] Freshly transformed BL21 colonies were inoculated into 2 L baffled flasks containing 250 mL sterilized TB (1.2% bactotryptone, 2.4% yeast extract, 0.4% glycerol, 0.17 M KH2PO4, 0.72 M K2HPO4) with 50 μg/ml ampicillin, and incubated overnight at 37° C. with shaking.
To determine the concentration of fibrils, the reaction mixture (100 μL) was centrifuged at 18,000×g for 10 minutes to separate fibrils from monomer. The α-synuclein monomer and other soluble proteins in the supernatant were removed, and the fibril pellet was resuspended in 100 μL solution of Tris-HCl (20 mM) and NaCl (100 mM). This fibril suspension was used in a bicinchoninic acid (BCA) protein assay along with a bovine serum albumin (BSA) standard curve to determine the concentration of fibrils in the 72 hour fibril reaction mixture.
To prepare the fibrils for performing binding assays, the fibril reaction mixture prepared above was centrifuged at 18,000×g for 10 minutes.
Once the ThT-α-synuclein saturation binding curve and dissociation constant (Kd) were determined the competitive assay for determining the binding affinity of various test compounds was conducted. […] The mixture was incubated at room temperature for 60 minutes on the shaking plate. The fluorescent intensity for each cell was measured by the fluorescence reader at λex and λem. The Ki value for each compound was calculated by the corresponding inhibition curve.
The Ki values were derived from the EC50 values using the Cheng-Prusoff equation: Ki=EC50/(1+[radioligand]/Kd). See FIGS. 17.1-31.2 for the inhibition curves for each compound in the ThioT competitive binding assay.

Where [2] appears, read: average, read-out: Ki (nM) α-syn (avg).
[3] abbreviates: individual determinations, read-out: Ki (nM) α-syn.
Setting [4] is: average, read-out: EC50 (nM) EC50 (avg).
The mark [5] stands for this setting: individual determinations, read-out: EC50 (nM) EC50.

Where “and” joins values, the source holds several entries; their conditions need not be identical. Identical values can stand only once. Like-named read-outs stand apart in the source and are kept apart here.

As to `O=C(Nc1ccc(OCCC[18F])cc1)c1ccc(/C=C/c2ccncc2)cc1` [[^18F]TZ-23-92], in data set [1] (5 min post injection), the “Biodistribution: Blood” value turned out to be 2.40 ± 0.39 % ID/g; the “Biodistribution: Bone” value was 3.31 % ID/g and 3.31 ± 0.74 % ID/g; the “Biodistribution: Brain” value is 1.51 % ID/g and 1.52 ± 0.18 % ID/g; the “Biodistribution: Fat” value is reported as 1.79 ± 0.55 % ID/g. Moreover, in data set [1] (5 min post injection), the “Biodistribution: Heart” value was 2.93 ± 0.34 % ID/g, the “Biodistribution: Kidney” value is 11.17 ± 0.41 % ID/g, the “Biodistribution: Liver” value is 52.44 ± 3.84 % ID/g and the “Biodistribution: Lung” value is 7.70 ± 0.85 % ID/g. In data set [1] (5 min post injection), the “Biodistribution: Muscle” value is recorded as 1.47 ± 0.16 % ID/g, the “Biodistribution: Pancreas” value is reported as 2.03 ± 0.19 % ID/g and the “Biodistribution: Spleen” value is given as 23.73 ± 4.54 % ID/g. For the same compound, in data set [1] (30 min post injection), the “Biodistribution: Blood” value was determined as 2.42 ± 0.19 % ID/g; the “Biodistribution: Bone” value is 39.47 % ID/g and 39.48 ± 10.28 % ID/g; the “Biodistribution: Brain” value is 1.55 % ID/g and 1.56 ± 0.08 % ID/g; the “Biodistribution: Fat” value was 1.34 ± 0.30 % ID/g. Moreover, in data set [1] (30 min post injection), the “Biodistribution: Heart” value was determined as 2.19 ± 0.19 % ID/g, the “Biodistribution: Kidney” value stood at 9.10 ± 0.34 % ID/g, the “Biodistribution: Liver” value came to 14.47 ± 1.13 % ID/g and the “Biodistribution: Lung” value came out at 2.30 ± 0.25 % ID/g. Moreover, in data set [1] (30 min post injection), the “Biodistribution: Muscle” value turned out to be 1.30 ± 0.16 % ID/g, the “Biodistribution: Pancreas” value was 1.87 ± 0.23 % ID/g and the “Biodistribution: Spleen” value is listed as 1.69 ± 0.15 % ID/g. In data set [1] (60 min post injection), the “Biodistribution: Blood” value stood at 0.84 ± 0.05 % ID/g; the “Biodistribution: Bone” value was 68.78 % ID/g and 68.78 ± 6.75 % ID/g; the “Biodistribution: Brain” value was 1.46 % ID/g and 1.46 ± 0.16 % ID/g; the “Biodistribution: Fat” value is 0.58 ± 0.13 % ID/g. Also, in data set [1] (60 min post injection), the “Biodistribution: Heart” value worked out at 0.90 ± 0.07 % ID/g, the “Biodistribution: Kidney” value is on record as 3.87 ± 0.36 % ID/g, the “Biodistribution: Liver” value is reported as 7.00 ± 0.33 % ID/g and the “Biodistribution: Lung” value is recorded as 0.83 ± 0.05 % ID/g. Further, in data set [1] (60 min post injection), the “Biodistribution: Muscle” value was 0.55 ± 0.06 % ID/g, the “Biodistribution: Pancreas” value worked out at 0.98 ± 0.08 % ID/g and the “Biodistribution: Spleen” value is recorded as 0.61 ± 0.04 % ID/g. Moreover, in data set [1] (120 min post injection), the “Biodistribution: Blood” value is 0.32 ± 0.02 % ID/g; the “Biodistribution: Bone” value was 70.20 % ID/g and 70.20 ± 15.04 % ID/g; the “Biodistribution: Brain” value is 1.0 % ID/g and 1.00 ± 0.11 % ID/g; the “Biodistribution: Fat” value was 0.29 ± 0.10 % ID/g. For the same compound, in data set [1] (120 min post injection), the “Biodistribution: Heart” value came out at 0.31 ± 0.02 % ID/g, the “Biodistribution: Kidney” value is on record as 1.67 ± 0.23 % ID/g, the “Biodistribution: Liver” value stood at 3.50 ± 0.48 % ID/g and the “Biodistribution: Lung” value is reported as 0.36 ± 0.03 % ID/g. Also, in data set [1] (120 min post injection), the “Biodistribution: Muscle” value is 0.33 ± 0.26 % ID/g, the “Biodistribution: Pancreas” value is given as 0.61 ± 0.13 % ID/g and the “Biodistribution: Spleen” value was determined as 0.24 ± 0.01 % ID/g. For the same compound, the “crossing of the blood brain barrier” value in data set [1] (judged from brain uptake at 5 min) is “can cross BBB and enter the brain”.
Take `COc1ccc(NC(=O)c2ccc(/C=C/c3ccncc3)cc2)cc1` [[^11C]TZ-20-83]: in data set [1] (5 to 60 min post injection), the “brain uptake and washout (assessment in words)” value is “brain uptake and washout aren't significant”. In addition, in data set [1] (5 min post injection), the “Biodistribution: Blood” value came out at 1.93 ± 0.15 % ID/g; the “Biodistribution: Brain” value was 1.93 % ID/g and 1.93 ± 0.29 % ID/g; the “Biodistribution: Fat” value amounted to 1.94 ± 0.20 % ID/g; the “Biodistribution: Heart” value is on record as 2.31 ± 0.37 % ID/g. For the same compound, in data set [1] (5 min post injection), the “Biodistribution: Kidney” value turned out to be 17.55 ± 2.61 % ID/g, the “Biodistribution: Liver” value came out at 37.98 ± 3.78 % ID/g, the “Biodistribution: Lung” value came out at 11.22 ± 0.59 % ID/g and the “Biodistribution: Muscle” value is listed as 1.18 ± 0.24 % ID/g. Moreover, in data set [1] (5 min post injection), the “Biodistribution: Pancreas” value was determined as 3.09 ± 0.39 % ID/g and the “Biodistribution: Spleen” value was found to be 18.77 ± 3.38 % ID/g. In data set [1] (30 min post injection), the organ recovery was found to be 58%; the “Biodistribution: Blood” value worked out at 1.59 ± 0.42 % ID/g; the “Biodistribution: Brain” value was 1.63 % ID/g and 1.63 ± 0.33 % ID/g; the “Biodistribution: Fat” value worked out at 1.73 ± 0.36 % ID/g. For the same compound, in data set [1] (30 min post injection), the “Biodistribution: Heart” value is given as 1.79 ± 0.35 % ID/g, the “Biodistribution: Kidney” value stood at 9.98 ± 1.76 % ID/g, the “Biodistribution: Liver” value is reported as 17.94 ± 3.86 % ID/g and the “Biodistribution: Lung” value came to 4.10 ± 0.96 % ID/g. Besides, in data set [1] (30 min post injection), the “Biodistribution: Muscle” value is 1.17 ± 0.23 % ID/g, the “Biodistribution: Pancreas” value is reported as 5.10 ± 1.09 % ID/g and the “Biodistribution: Spleen” value was 3.49 ± 0.84 % ID/g. Moreover, in data set [1] (60 min post injection), the organ recovery amounted to 38%; the “Biodistribution: Blood” value turned out to be 1.56 ± 0.12 % ID/g; the “Biodistribution: Brain” value is 1.25 % ID/g and 1.25 ± 0.11 % ID/g; the “Biodistribution: Fat” value was found to be 1.05 ± 0.22 % ID/g. In data set [1] (60 min post injection), the “Biodistribution: Heart” value stood at 1.48 ± 0.05 % ID/g, the “Biodistribution: Kidney” value turned out to be 5.82 ± 0.47 % ID/g, the “Biodistribution: Liver” value came out at 13.36 ± 1.75 % ID/g and the “Biodistribution: Lung” value turned out to be 2.93 ± 0.22 % ID/g. Besides, in data set [1] (60 min post injection), the “Biodistribution: Muscle” value came to 0.92 ± 0.14 % ID/g, the “Biodistribution: Pancreas” value worked out at 6.96 ± 0.51 % ID/g and the “Biodistribution: Spleen” value stood at 3.21 ± 0.76 % ID/g.
Usually Ki stands for a dissociation constant, usually derived from enzyme kinetics or from competition with a known ligand. In general, EC50 refers to the concentration needed to bring the measured effect to its halfway point. Take `COc1ccc(/C=C/c2cc(Br)cs2)cc1` [TZ-34-39]: the Ki on α-synuclein fibrils (setting [2]) was 256 nM; on α-synuclein fibrils (setting [3]), 233 nM and 278 nM. Also, the 50% effective concentration (EC50) is 668 nM on α-synuclein fibrils (setting [4]); 609 nM and 727 nM at α-synuclein fibrils (setting [5]).
`C(=C\c1ccccc1)/CN1c2ccccc2Oc2ccccc21` [TZ-19-136]: the Ki at α-synuclein fibrils (setting [2]) and at α-synuclein fibrils (setting [3]) was 3060 nM throughout.
In the case of `C(=C\c1ccccc1)/CN1c2ccccc2Sc2ccccc21` [TZ-19-126], the inhibition constant (Ki) on α-synuclein fibrils (setting [2]) and on α-synuclein fibrils (setting [3]) was 3880 nM in each case.
With `CNC(=O)c1ccc(/C=C/c2ccncc2)cc1` [TZ-20-69], the Ki at α-synuclein fibrils (setting [2]) and at α-synuclein fibrils (setting [3]) was 85.6 nM each time.
In the case of `Ic1ccc(/C=C/c2ccsc2)cc1` [TZ-34-64], the Ki on α-synuclein fibrils (setting [2]) and on α-synuclein fibrils (setting [3]) was 115 nM in each case. Also, the EC50 at α-synuclein fibrils (setting [4]) and at α-synuclein fibrils (setting [5]) was 300 nM in each case.
With `COc1ccc(C(=O)C2CCN(C(=O)c3ccc(/C=C/c4ccncc4)cc3)CC2)cc1` [TZ-20-51], the Ki on α-synuclein fibrils (setting [2]) and on α-synuclein fibrils (setting [3]) was 184 nM each time.
In the case of `Fc1ccc(/C=C/c2ccncc2)cc1` [TZ-20-73], the Ki at α-synuclein fibrils (setting [2]) and on α-synuclein fibrils (setting [3]) was 432 nM in each case.
Turning to `COc1ccc(/C=C/c2cnccn2)cc1OC` [TZ-22-37-1], the Ki on α-synuclein fibrils (setting [2]) and at α-synuclein fibrils (setting [3]) was 213 nM each time.
Take `COc1ccc(/C=C/c2cnccn2)cc1` [TZ-22-1-2]: the Ki on α-synuclein fibrils (setting [2]) and at α-synuclein fibrils (setting [3]) was 31.9 nM in each case.

For the origin of these results see US10300155B2, “Alpha-synuclein ligands” (Washington University, priority 2015, dated 2019).
